One data set relates to white mice. The data set can be described thus: in vivo. As for the experimental part:
(§1) The acute toxicity of the test compounds was determined after a single application of 1000 or 2000 mgm/kg p.o., respectively, to 5 white mice each.

The test system of the next data set is guinea pigs. The data set can be described thus: Secretolytic (expectorant) effect in anesthetized guinea pigs after oral application. Type of data set: in vivo. As to conditions: 8 mgm/kg oral, within 2 hours, 6-8 animals. As for the experimental part: (§2) The expectorant activity was tested on anesthetized rabbits and guinea pigs after oral application of 8 mgm/kg of the test compound to 6-8 animals. The increase in secretion within 2 hours was calculated from the amounts of secretion before and after application of the substance [see Perry and Boyd in Pharmakol. exp. Therap. 73, 65 (1941)].

The nature of another data set: in vivo. As to conditions: mouse, in vivo, po. The protocol: as §1
In another data set the test system is ulcers. The data set can be described thus: Anti-ulcerogenic activity, acetic acid stomach ulcers, method of K. Takagi et al. The following applies: three weeks with food. Type of data set: in vivo, female rats. As for the experimental part:
The inhibiting effect of the test compounds on the formation of ulcers was determined according to the method of K. Takagi et al [Jap. J. Pharmac. 19, 418 (1969)]. The abdominal cavity of anesthetized female rats having a body weight from 220 to 250 gm was opened and the stomach was exposed. Then, 0.05 ml of an aqueous 5% acetic acid solution was injected between the muscularis mucosae and submucosa of the stomach. Thereafter, the abdominal cavity was closed again. The ulcers formed in the mucosa after 3 to 5 days were treated for three weeks by admixing the test compound in question with the food at dosage levels of 50 and 100 mgm/kg (6 animals/dose). The control animals were fed with the pulverized food only.
After treatment for three weeks the animals were killed, the stomach was removed, and the size of the ulcers was determined by measurement of their length and width. The anti-ulcerogenic activity of the test compound was determined by the size of the ulcers comparing with the control values (100%): […]

Another data set has as its system cats. The data set can be described thus: Circulatory effect in cats under chloralose-urethane anesthesia after intravenous application. Type of data set: in vivo. As to conditions: 2, 4 and 8 mgm/kg intravenous, 3 animals per dose. The protocol:
The circulatory effect in cats was determined under chloralose-urethane anesthesia after intravenous application of 2,4 and 8 mgm/kg of the test compound (3 animals per dose).

For another data set, the system named is rabbits. The data set can be described thus: Secretolytic (expectorant) effect in anesthetized rabbits after oral application. The class given is in vivo. The following applies: 8 mgm/kg oral, within 2 hours, 6-8 animals. The protocol: as §2
Setting [1] is: single application, 5 white mice, read-out: Acute toxicity.

Counter-ions that a name gives are not always drawn. Like-named read-outs stand apart in the source and are kept apart here. Some results are limits rather than exact numbers.

With “2-amino-3-bromo-N-cyclohexyl-N-ethyl-3-fluoro-benzylamine hydrochloride”, the animals died in the data set with white mice (single 1000 mgm/kg p.o.) is reported as 0 out of 5. The same compound displayed an Increase in secretion in the data set on guinea pigs of 100%.
Take `CCOC(=O)c1cc(Br)c(N)c(CN(CC)CC)c1.Cl` [A, 2-amino-3-bromo-5-carbethoxy-N,N-diethyl-benzylamine hydrochloride]: the LD50 in the data set “in vivo” (setting [1]) was more than 2000 mg/kg. For the same compound, the animals died with white mice (single 2000 mgm/kg p.o.) was 0 out of 5. In the data set with guinea pigs, this compound returned an Increase in secretion of 90%. The “reduction of the ulcers compared with control values” was found to be 52% with ulcers (peroral dosage of 50 mgm/kg) and 79% in the data set with ulcers (peroral dosage of 100 mgm/kg). In addition, the Circulatory effect entry with cats is “no change”.
Turning to `CCN(Cc1cc(C(=O)O)cc(Br)c1N)C1CCCCC1.Cl` [B, 2-amino-3-bromo-5-carboxy-N-cyclohexyl-N-ethyl-benzylamine hydrochloride], the LD50 in “in vivo” (setting [1]) was more than 1000 mg/kg. For the same compound, the animals died in the data set with white mice (single 1000 mgm/kg p.o.) is listed as 0 out of 5. Besides, in the data set on guinea pigs, the Increase in secretion was 81%. The Circulatory effect result in the data set with cats is listed as “no change”.
For the compound `Cc1cc(Br)cc(CN2CCCCCC2)c1N` [D, N-(2-amino-5-bromo-3-methyl-benzyl)-hexamethyleneamine dihydrochloride], the LD50 in “in vivo” is more than 1000 mg/kg. In addition, the animals died with white mice (single 1000 mgm/kg p.o.) is 0 out of 5. The Increase in secretion in the data set with rabbits came out at 72%.
As for `CC(C)(C)c1cc(N)c(CN2CCOCC2)cc1Br.Cl.Cl` [E, N-(2-amino-5-bromo-4-tert.butyl-benzyl)-morpholine dihydrochloride], in “in vivo” (setting [1]), the LD50 is more than 1000 mg/kg. Moreover, in the data set on white mice (single 1000 mgm/kg p.o.), the animals died is 0 out of 5. In the data set on rabbits, this compound gave an Increase in secretion of 77%.
Taken in the same sequence, the figures for `CC(=O)c1cc(Br)c(N)c(CN(C)C)c1` [F, 5-acetyl-2-amino-3-bromo-N,N-dimethyl-benzylamine] were approximately 1000 mg/kg, 2 out of 5 and 75%.
With `CN(C)Cc1cc(F)cc(Br)c1N.Cl` [G, 2-amino-3-bromo-N,N-dimethyl-5-fluoro-benzylamine hydrochloride], the LD50 in “in vivo” (setting [1]) was more than 1000 mg/kg. For the same compound, the animals died in the data set on white mice (single 1000 mgm/kg p.o.) is given as 0 out of 5. In addition, the Increase in secretion with guinea pigs was 84%.

(Values after US3950393A, “Aminobenzyl-amides and salts thereof” (Boehringer Ingelheim GmbH, priority 1973, dated 1976).)
